In patent US11185539B2 (priority 2017, dated 2021):

Test system: C57BL/6N mice with angiotensin II-induced diastolic heart failure
Test: Echocardiography in therapeutic murine model (angiotensin II for eight weeks)
Assay type: in vivo
Conditions: therapeutic: Bufalin 0.5 mg/kg i.p. every other day from week 2; week 8
Experimental: Diastolic heart failure (HF) was induced in C57BL/6N mice via implantation of angiotensin II filled minipumps (see Example 3). In difference to Example 3, C57BL/6N mice were infused with 3 mg/kg/day angiotensin II by subcutaneously implanted minipumps for eight weeks.
Next, Bufalin or Lycorine (dissolved in DMSO) or the solvent DMSO alone (as control) were injected intraperitoneally (i.p) every other day until the endpoint, starting two weeks after start of angiotensin II-infusion (see FIG. 11).
Diastolic HF was induced in C57BL/6 mice and Bufalin or Lycorine were injected as indicated in Example 5. Eight weeks after the operation, cardiac function of the mice was assessed echocardiographically (n=5-12 per group) by treating the mice with said compounds (Bufalin: 0.5 mg/kg, Lycorine 4.5 mg/kg).
A decrease of the Myocardial Performance Index (MPI) (see FIG. 12B) as well as a reduction of the isovolumetric relaxation time (IVRT) (see FIG. 12C) and an increase in E to A peak ratio (E/A) (the ratio of the early (E) to late (A) ventricular filling velocities as a marker of the function of the left ventricle of the heart) (see FIG. 12D) indicate improvement of both global (MPI) and diastolic (IVRT and E/A) function of the heart, in particular for Bufalin.

C[C@]12CC[C@H](O)C[C@H]1CC[C@@H]1[C@@H]2CC[C@]2(C)[C@@H](c3ccc(=O)oc3)CC[C@]12O [Bufalin]
E to A peak ratio: increase
Myocardial Performance Index (MPI): decrease
isovolumetric relaxation time (IVRT): reduction
